Source: patent US20120136046A1, “METHOD OF TREATING AGE RELATED DISORDERS” (Chronos Therapeutics Limited, priority 2009, published 2012)

Assays:
[1] = tested on: MRC5 human fibroblast cell line; assay: Cell division rate / replicative lifespan of MRC5 fibroblasts; format: cell-based
Procedure: The cell division rate was measured using the method of Fairweather, D. S., M. Fox, and G. P. Margison, (1987), Exp Cell Res, 168(1): p. 153-9. Briefly, the replicative lifespan of MRC5 cells are measured by growing them on the surface of dishes until the reach confluencey whereupon they are split at a 1:2 ratio (i.e. diluted 1 in 2). The number of times the culture is split is equal to that of the number of divisions the cells are able to undertake which is the cultures replicative lifespan. MRC5 cells are only able to divide a finite number of times, and as they reach the end of their life the time they take to undergo cell division increases. In this instance the rate of cell division is used as a measure of age.

S. cerevisiae = assay: Chronological lifespan of yeast, outgrowth method (Bioscreen C); format: cell-based; conditions: FIG. 4
Procedure: Lifespan was measured using the outgrowth method described by Murakami, C. and Kaeberlein, M., (2009) J. Vis. Exp, 27. Briefly, chronological lifespan of yeast refers to the profile of viability of an ageing yeast culture over time. To measure this a yeast culture is grown in liquid media until the glucose carbon source is exhausted and the cells stop dividing. At this point the proportion of cells which are alive and able to divide is measured by observing the outgrowth characteristics of a fresh inoculate of the ageing culture using a Bioscreen™ C machine (Oy Growth Curves Ab Ltd, Finland). Viabilities at various time points are compared to determine the chronological lifespan of the culture.

C. elegans = C. elegans lifespan, percentage of living worms over time; format: in vivo; conditions: FIG. 5
Procedure: FK-506 was added to C. elegans during the timed egg laying stage and lifespan was measured as described in Sutphin, G. L., and Kaeberlein, M., (2009) J. Vis. Exp, 27. Briefly this method comprises synchronising a population of worms and measuring the percentage of living worms at a range of time points, scoring live worms by their ability to respond to physical stimulus.

SMILES: C=CC[C@@H]1/C=C(\C)C[C@H](C)C[C@H](OC)[C@H]2O[C@@](O)(C(=O)C(=O)N3CCCC[C@H]3C(=O)O[C@H](/C(C)=C/[C@@H]3CC[C@@H](O)[C@H](OC)C3)[C@H](C)[C@@H](O)CC1=O)[C@H](C)C[C@@H]2OC [FK-506, fujimycin]
- age dependent reduction in cell division rate ([1]; MRC5 cells, FIG. 6): appears to reverse age dependent reduction in cell division rate
- division time compared to a control having no FK-506 added ([1]; MRC5 cells, addition after 39 divisions): reduction of the division time
- toxicity to the cells ([1]; higher concentrations): becomes toxic to the cells
- effect on the chronological lifespan of the cells compared to the control (S. cerevisiae; 0.1 ng/ml in the culture medium): no significant effect
- effect on the median lifespan of the yeast cells compared to the control (S. cerevisiae; 1 ng/ml or more in the culture medium): significant effect increasing the median lifespan
- lifespan of C. elegans (C. elegans; added during the timed egg laying stage): prolongs the lifespan of C. elegans in a dose dependent manner
- viability of the organisms (chronological lifespan) (C. elegans; addition of 4μ/ml): significant increase in the viability
